In ChEMBL document CHEMBL1201862, “PubChem BioAssay data set” (2004):
Calls of active or inactive are those of the source. Cut-off read from the data, not from the text of the source: actives have a measured IC50 and inactives only a lower limit.

Target: Envelope glycoprotein gp160 (Human immunodeficiency virus 1, UniProt Q6QLK5)
Assay: cell-free HIV fusion peptide-binding blockers – biochemical, uHTS, fluorescence dequenching, […] (AID 1986)

Sequence of Envelope glycoprotein gp160 (Q6QLK5 whole entry, the tested form may be a part): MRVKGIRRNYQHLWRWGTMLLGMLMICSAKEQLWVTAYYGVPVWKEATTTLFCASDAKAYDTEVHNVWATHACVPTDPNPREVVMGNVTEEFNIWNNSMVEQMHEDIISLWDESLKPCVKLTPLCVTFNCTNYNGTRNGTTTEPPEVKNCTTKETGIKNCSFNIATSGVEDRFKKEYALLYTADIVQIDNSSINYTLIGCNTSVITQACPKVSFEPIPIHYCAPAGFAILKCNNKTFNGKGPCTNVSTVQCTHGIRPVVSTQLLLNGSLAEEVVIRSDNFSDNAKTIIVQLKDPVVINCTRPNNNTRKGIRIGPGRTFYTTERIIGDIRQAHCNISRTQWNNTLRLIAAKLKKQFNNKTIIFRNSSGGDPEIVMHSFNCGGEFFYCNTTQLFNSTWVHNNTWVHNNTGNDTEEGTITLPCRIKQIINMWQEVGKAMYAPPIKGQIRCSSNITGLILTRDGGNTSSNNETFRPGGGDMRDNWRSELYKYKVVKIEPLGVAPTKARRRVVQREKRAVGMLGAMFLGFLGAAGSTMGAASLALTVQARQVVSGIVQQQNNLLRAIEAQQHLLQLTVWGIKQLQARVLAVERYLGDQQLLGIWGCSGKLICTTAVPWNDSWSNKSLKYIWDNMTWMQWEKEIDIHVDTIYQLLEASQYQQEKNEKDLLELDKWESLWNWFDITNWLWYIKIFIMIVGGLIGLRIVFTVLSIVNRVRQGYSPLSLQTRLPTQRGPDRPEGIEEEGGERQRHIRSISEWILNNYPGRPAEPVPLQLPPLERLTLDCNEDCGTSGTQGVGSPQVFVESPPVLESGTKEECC

NC(=O)Cn1cc(C=C2C(=O)NC(=O)NC2=O)c2ccccc21
IC50: 69.2 µM (active)

Cc1ccc(NC(=O)COc2cccc(/C=C3\SC(=S)N(CCC(=O)O)C3=O)c2)cc1Cl
IC50: 12.2 µM (active)
